Reference: US7750012B2, “Biaryl nitrogen-heterocycle inhibitors of LTA4H for treating inflammation” (deCODE genetics ehf, priority 2005, dated 2010)
Where a name gives a salt, the structure may show the parent alone.

Tests used:
[1] = target: T1, purified recombinant human LTA4 hydrolase (hLTA4H) (Homo sapiens, UniProt P09960); assay: In vitro assay testing inhibitory activity against purified recombinant human LTA4 hydrolase; type: biochemical; details: 200 nM recombinant enzyme, 2 μM LTA4, LTB4 measured by LC-MS/MS
T1 construct: A human LTA4 hydrolase full-length cDNA clone (NM_000895) was purchased from OriGene Technologies; own knowledge: pDEST17 adds an N-terminal 6xHis; made in house; host or cells: Escherichia coli BL21-AI
T1 sequence (P09960 1-611): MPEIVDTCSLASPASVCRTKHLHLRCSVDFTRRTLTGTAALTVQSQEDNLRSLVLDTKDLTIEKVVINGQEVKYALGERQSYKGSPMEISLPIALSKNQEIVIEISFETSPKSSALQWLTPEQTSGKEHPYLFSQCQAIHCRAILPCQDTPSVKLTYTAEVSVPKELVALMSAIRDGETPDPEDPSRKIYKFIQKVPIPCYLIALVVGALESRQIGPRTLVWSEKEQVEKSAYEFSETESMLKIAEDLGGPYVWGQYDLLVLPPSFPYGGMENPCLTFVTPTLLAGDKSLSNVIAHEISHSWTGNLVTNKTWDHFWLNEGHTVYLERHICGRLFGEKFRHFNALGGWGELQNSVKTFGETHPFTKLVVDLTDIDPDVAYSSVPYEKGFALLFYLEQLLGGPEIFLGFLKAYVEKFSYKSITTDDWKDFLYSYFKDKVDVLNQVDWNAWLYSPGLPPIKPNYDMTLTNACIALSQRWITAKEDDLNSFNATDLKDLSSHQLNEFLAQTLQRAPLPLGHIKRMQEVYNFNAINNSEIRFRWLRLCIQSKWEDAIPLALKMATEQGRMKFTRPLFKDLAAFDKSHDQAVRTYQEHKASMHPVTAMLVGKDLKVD
Text: (1) In Vitro Assay Testing Inhibitory Activity Against Purified Recombinant Human LTA4 Hydroase:
The gene was amplified by polmerase chain reaction and transferred via pDONR201 into the bacterial expression vector pDEST17 by recombination (both plasmids from Invitrogen, Carlsbad, Calif.). The resulting construct was transformed into Escherichia coli BL21-AI (Invitrogen), and expression was induced by chemical induction with arabinose. The recombinant enzyme was purified by chromatography on a FPLC system (Amersham Biosciences, Uppsala, Sweden) using immobilized metal affinity chromatography (Ni-NTA Superflow, Qiagen, Hilden, Germany) and anion exchange chromatography (MonoQ HR 10/10, Amersham Biosciences).
The compounds of the invention were incubated in a series of dilutions with 200 nM of recombinant enzyme in assay buffer (100 mM Tris-HCl, 100 mM NaCl, 5 mg/ml fatty-acid free BSA, 10% DMSO, pH 8.0) for 10 min at room temperature to allow binding between LTA4 hydrolase and the inhibitors. LTA4 was prepared by alkaline hydrolysis of LTA4 methyl ester (Biomol, Plymouth Meeting, Pa., or Cayman Chemicals, Ann Arbor, Mich.). A solution of 10 μg of the ester was dried under a nitrogen stream and redissolved in 60 μl of a solution of 80% aceton and 20% 0.25 M NaOH.
After incubation for 40 min at room temperature the resulting approximately 500 μM tock of LTA4 was kept at −80° C. for no more than a few days prior to use.
Immediately before the assay, LTA4 was diluted to a concentration of 10 μM in assay buffer (without DMSO) and added to the reaction mixture to a final concentration of 2 μM to initiate the enzyme reaction. […] The samples were then kept at 4° C. over night to complete protein precipitation and centrifuged for 15 min at 1800 g. LTB4 formed was measured by LC-MS/MS using LTB4-d4 as an internal standard and an external LTB4 standard (Biomol) as reference.

colitis symptoms = details: eight weeks of treatment, spontaneous colitis; cited from earlier work
[2] = system: ionophore-induced LTB4 production; details: oral administration; cited from earlier work
[3] = system: ionophore-induced LTB4 production; details: oral administration; cited from earlier work; remark: listed apart in the source

Row | IC50 [1] | Structure (SMILES) | other results
1 | < 5 µM | Ic1ccc(Oc2ccc(N3CCNCC3)cc2)cc1 [Example 14, 1-[4-(4-Iodo-phenoxy)-phenyl]-piperazine hydrochloride] | –
2 | < 5 µM | O=C(O)CCN1CCN(c2ccc(Oc3ccc(-c4ccsc4)cc3)cc2)CC1 [Example 16, 3-{4[4-(4-Thiophen-3-yl-phenoxy)-phenyl]-piperazin-1-yl}-propionic acid sodium salt] | –
3 | < 5 µM | c1ccc(Cc2ccc(N3CCNCC3)cc2)cc1 [Example 4, 1-(4-Benzyl-phenyl)-piperazine hydrochloride] | –
4 | < 5 µM | Cc1ccc(Oc2ccc(N3CCNCC3)cc2)cc1 [Example 18, 1-(4-p-Tolyloxy-phenyl]-piperazine] | –
5 | 5 to 20 µM | O=C(O)CCCN1CCN(c2ccc(Nc3ccccc3)cc2)CC1 [Example 3, 4-[4-(4-phenylamino-phenyl)-piperazin-1-yl]-butyric acid sodium salt] | –
6 | – | CN(CCCOc1ccc(Cc2ccccc2)cc1)CCC(=O)O.Cl [SC57461] | colitis symptoms in a primate model (colitis symptoms): significantly improved colitis symptoms; inhibition of ionophore-induced LTB4 production in rat peritoneum in vivo [2]: inhibition of ionophore-induced LTB4 production; inhibition of ionophore-induced LTB4 production in mouse blood ex vivo [3]: inhibition of ionophore-induced LTB4 production
7 | < 5 µM | O=C(O)CCCN1CCN(c2ccc(Cc3ccccc3)cc2)CC1 [Example 6, 4-[4-(4-Benzyl-phenyl)-piperazin-1-yl]-butyric acid sodium salt] | –
8 | 5 to 20 µM | COc1ccc(Oc2ccc(N3CCNCC3)cc2)cc1 [Example 17, 1-[4-(4-Methoxy-phenoxy)-phenyl]-piperazine] | –
9 | 5 to 20 µM | NC1CCN(c2ccc(Oc3ccccc3)cc2)CC1 [Example 12, 1-(4-Phenoxy-phenyl)-piperidin-4-ylamine hydrochloride] | –
10 | < 5 µM | CC(=O)N1CCN(c2ccc(Oc3ccccc3)cc2)CC1 [Example 21, 1-[4-(4-Phenoxy-phenyl)-piperazin-1-yl]-ethanone] | –
11 | < 5 µM | Ic1ccc(Oc2ccc(N3CCOCC3)cc2)cc1 [Example 24, 4-[4-(4-Iodo-phenoxy)-phenyl]-morpholine] | –
12 | < 5 µM | O=C(O)CCCN1CCN(c2ccc(Oc3ccc(I)cc3)cc2)CC1 [Example 15, 4-{4-[4-(4-Iodo-phenoxy)-phenyl]-piperazin-1-yl]-butyric acid sodium salt] | –
13 | < 5 µM | c1cc(-c2ccc(Oc3ccc(N4CCNCC4)cc3)cc2)cs1 [Example 23, 1-[4-(4-Thiophen-3yl-phenoxy)-phenyl]-piperazine hydrochloride] | –
14 | < 5 µM | FC(F)(F)c1ccc(Oc2ccc(N3CCNCC3)cc2)cc1 [Example 20, 1-[4-(4-Trifluoromethyl-phenoxy)-phenyl]-piperazine] | –
15 | < 5 µM | O=C(O)CCN1CCN(c2ccc(Cc3ccccc3)cc2)CC1 [Example 7, 3-[4-(4-Benzyl-phenyl)-piperazin-1-yl]-propionic acid sodium salt] | –
16 | < 5 µM | COC(=O)CCCN1CCN(c2ccc(Cc3ccccc3)cc2)CC1 [Example 5, 4-[4-(4-Benzyl-phenyl)-piperazin-1-yl]-butyric acid methyl ester] | –
17 | < 5 µM | c1cc(-c2ccc(Oc3ccc(N4CCOCC4)cc3)cc2)cs1 [Example 25, 4-[4-(4-Thiophen-3-yl-phenoxy)-phenyl]-morpholine] | –
18 | 5 to 20 µM | Clc1ccc(-c2ccc(Oc3ccc(N4CCNCC4)cc3)cc2)s1 [Example 26, hydrochloride] | –
